The subject of assay [1] is 5-hydroxytryptamine (serotonin) receptor 2C. The assay can be described thus: Next Generation Sequencing (RNAseq) of primary cortical neurons: 5-hydroxytryptamine receptor 2C transcript. The assay is classed as cell-based, mouse. To be noted: 1 mM 10-HDA vs DMSO, primary cortical neurons of C57Black 6 mice, harvested Day 7. The method, then:
(§1) Foetal cortices of C57Black 6 mice (gestational days 15) were micro-dissected and subjected to trypsin digestion and mechanical trituration and centrifugation. The pelleted cells were resuspended in Neurobasal™ medium (NBM) containing 2.5% B-27 supplement, 1% penicillin, 1% streptomycin, 0.25% GlutaMAX-1 supplement and 10% dialysed foetal calf serum. Cells were seeded on poly-d-lysine (100 μg/ml) coated 12-well plates to a density of […]. Cultures were maintained at 37° C. in a humidified 5% CO2 and 95% air incubator and were subsequently cultured after day 1 in serum-free medium. After 24 hours, primary cortical neurons were treated with DMSO or 1 mM 10-HDA, and harvested for total RNA preparation on Day 7 for subsequent Next Generation Sequencing (RNAseq). […]
(§2) Total RNA was extracted from each sample using the PARIS kit (Ambion). The quality of RNA was assessed by LabChip® (Perkin Elmer). […] The libraries were sequenced with 50 bp single end reads using Illumina Hiseq and subjected to bioinformatic analyses. Sequencing data were assessed (FastQC) and aligned to mouse genome using Subjunc aligner within the Subread package. Sequencing data was summarised into Reads per transcript using Feature counts and the Gencode gene models for the mouse genome build. […]

Assay [2] concerns male ArKO (aromatase knockout) mice. The assay can be described thus: Water mist spray triggered grooming in male ArKO mice treated with 10-HDA. The assay is classed as in vivo, mouse. The method, then:
Specifically, male 3 month-old ArKO mice (n=5) were injected daily with 10-HDA (500 μg/kg) for 1 week. Similarly to Example 1 (see above), water mist spray triggered grooming was assessed before and after administration of 10-HDA treatment. During grooming assessment, each mouse was subjected to two squirts of sterile water mist spray and its grooming activity was recorded for 10 min immediately after the mist spray. Grooming duration was analyzed statistically by paired t test. […] Further grooming assessment was performed 5 days after the last administration of 10-HDA.

In assay [3] the test system is dynamin 3. The assay can be described thus: Next Generation Sequencing (RNAseq) of primary cortical neurons: dynamin 3 transcript. The conditions noted are these: 1 mM 10-HDA vs DMSO, primary cortical neurons of C57Black 6 mice, harvested Day 7. The assay is classed as cell-based, mouse. The method, then:
as §1, §2

The test system of assay [4] is male ArKO mice. The assay can be described thus: Behavioural disturbances of male ArKO mice (wheel running, compulsive grooming). To be noted: administration to male ArKO mice; general statement. The assay is classed as in vivo, mouse. The method, then:
Specifically, the grooming activity of each animal was analysed for 20 min after administration of water mist spray (a trigger for grooming). […] Compulsive grooming observed in ArKO represents an OCD-like repetitive behavioural disturbance in OCD-patients.

As to `O=C(O)C=CCCCCCCCO` [10-HDA, 10-hydroxy-2-decenoic acid], in assay [1], the “transcript expression level of 5-hydroxytryptamine (serotonin) receptor 2C” value is reported as “significantly upregulated”. For the same compound, in assay [2] (5 days after the last administration of 10-HDA, male ArKO mice), the “grooming duration after the withdrawal period” value was “return to pre-treatment levels”. The “duration of grooming after administration of 10-HDA” value in assay [2] (male 3 month-old ArKO mice, 500 μg/kg injected daily for 1 week, 10 min after water mist spray, before vs after treatment, paired t test p=0.0363) is “significant reduction”. For the same compound, the “transcript expression level of dynamin 3” value in assay [3] is reported as “significantly upregulated”. Further, the “behavioural disturbances, including wheel running and/or compulsive grooming” value in assay [4] was “alleviated one or more of the behavioural disturbances”.

Source of the values: patent US11197840B2, “Methods of treating or alleviating mental disorders and associated symptoms” (The Florey Institute of Neuroscience and Mental Health, priority 2015, dated 2021).
